Laboratory results from patent US5980913A, “Peptides having immunomodulatory activity” (Biochem Pharma, Inc., priority 1994, dated 1999).
Where a SMILES comes first, the peptide text is derived from it. [ ]: non-standard residue; d: D form.

Tested on: blood cell subsets (cell surface antigens)
Assay: In vivo/ex vivo immunophenotyping in the blood, mice treated 4 consecutive days, blood taken on day 5
Design: species or system C57BL/6 mice
Method: C57BL.backslash.6 mice are treated with 0, 50, 100, 200, and 300 mg/kg of drug (in saline) for 4 consecutive days. Blood is taken by cardiac puncture on day 5, and the lymphocytes are isolated from spleen in the following manner:
1. Immunophenotyping (blood and spleen)
Cell immunophenotyping is performed on blood and spleen. The following cell surface antigens are analyzed:
CD4 (T helper/inducer, binds class II-restricted T cells);
CD8 (cytotoxic T cells, CTL adhesion);
MAC-1 (monocyte/macrophage);
NK (natural killer cells);
CD45 (all leukocytes, protein tyrosine phosphatase).

NCCCC[C@@H](N)C(=O)N[C@@H](CC(N)=O)C(=O)N1CCC[C@H]1C(=O)N[C@@H](Cc1ccc(O)cc1)C(=O)O [PEPTIDE #5, H-(D-Lys)-Asn-Pro-Tyr-OH] (H-[dK]NPY-OH)
TCR(T) cell subset, relative percentage, MEAN (100 mg/kg, first assay): 32.23 | CD4+ CD8+ cell subset, relative percentage, MEAN (100 mg/kg, second assay): 0.33 | CD4+ CD8- cell subset, relative percentage, MEAN (100 mg/kg, second assay): 25.00 | CD4+ CD11b+ cell subset, relative percentage, MEAN (100 mg/kg, second assay): 0.50 | CD4+ CD11b- cell subset, relative percentage, MEAN (100 mg/kg, second assay): 21.58 | CD4- CD8+ cell subset, relative percentage, MEAN (100 mg/kg, second assay): 6.80 | CD4- CD8- cell subset, relative percentage, MEAN (100 mg/kg, second assay): 67.83 | CD4- CD11b+ cell subset, relative percentage, MEAN (100 mg/kg, second assay): 10.28 | CD4- CD11b- cell subset, relative percentage, MEAN (100 mg/kg, second assay): 67.65 | CD45+ CD4+ cell subset, relative percentage, MEAN (100 mg/kg, second assay): 22.70 | CD45+ CD4- cell subset, relative percentage, MEAN (100 mg/kg, second assay): 68.45 | CD45+ CD8+ cell subset, relative percentage, MEAN (100 mg/kg, second assay): 7.05 | CD45+ CD8- cell subset, relative percentage, MEAN (100 mg/kg, second assay): 85.00 | CD45- CD4+ cell subset, relative percentage, MEAN (100 mg/kg, second assay): 2.23 | CD45- CD4- cell subset, relative percentage, MEAN (100 mg/kg, second assay): 6.63 | CD45- CD8+ cell subset, relative percentage, MEAN (100 mg/kg, second assay): 0.10 | CD45- CD8- cell subset, relative percentage, MEAN (100 mg/kg, second assay): 7.83 | Ly5(B) cell subset, relative percentage, MEAN (100 mg/kg, second assay): 56.10 | NK+ CD3+ cell subset, relative percentage, MEAN (100 mg/kg, second assay): 4.68 | NK+ CD3- cell subset, relative percentage, MEAN (100 mg/kg, second assay): 7.58 | NK- CD3+ cell subset, relative percentage, MEAN (100 mg/kg, second assay): 36.30 | NK- CD3- cell subset, relative percentage, MEAN (100 mg/kg, second assay): 51.43 | TCR(T) cell subset, relative percentage, MEAN (100 mg/kg, second assay): 37.50 | CD4+ CD8+ cell subset, relative percentage, MEAN (200 mg/kg, first assay): 1.90 | CD4+ CD8- cell subset, relative percentage, MEAN (200 mg/kg, first assay): 19.00 | CD4+ CD11b+ cell subset, relative percentage, MEAN (200 mg/kg, first assay): 0.85 | CD4+ CD11b- cell subset, relative percentage, MEAN (200 mg/kg, first assay): 18.98 | CD4- CD8+ cell subset, relative percentage, MEAN (200 mg/kg, first assay): 4.68 | CD4- CD8- cell subset, relative percentage, MEAN (200 mg/kg, first assay): 74.40 | CD4- CD11b+ cell subset, relative percentage, MEAN (200 mg/kg, first assay): 7.78 | CD4- CD11b- cell subset, relative percentage, MEAN (200 mg/kg, first assay): 72.45 | CD45+ CD4+ cell subset, relative percentage, MEAN (200 mg/kg, first assay): 17.45 | CD45+ CD4- cell subset, relative percentage, MEAN (200 mg/kg, first assay): 57.70 | CD45+ CD8+ cell subset, relative percentage, MEAN (200 mg/kg, first assay): 6.15 | CD45+ CD8- cell subset, relative percentage, MEAN (200 mg/kg, first assay): 64.30 | CD45- CD4+ cell subset, relative percentage, MEAN (200 mg/kg, first assay): 3.48 | CD45- CD4- cell subset, relative percentage, MEAN (200 mg/kg, first assay): 21.35 | CD45- CD8- cell subset, relative percentage, MEAN (200 mg/kg, first assay): 29.08 | CD45- CDE8+ cell subset, relative percentage, MEAN (200 mg/kg, first assay): 0.48 | Ly5(B) cell subset, relative percentage, MEAN (200 mg/kg, first assay): 65.60 | NK+ CD3+ cell subset, relative percentage, MEAN (200 mg/kg, first assay): 1.93 | NK+ CD3- cell subset, relative percentage, MEAN (200 mg/kg, first assay): 5.73 | NK- CD3+ cell subset, relative percentage, MEAN (200 mg/kg, first assay): 33.03 | NK- CD3- cell subset, relative percentage, MEAN (200 mg/kg, first assay): 59.33 | TCR(T) cell subset, relative percentage, MEAN (200 mg/kg, first assay): 32.18 | CD4+ CD8+ cell subset, relative percentage, MEAN (200 mg/kg, second assay): 0.30 | CD4+ CD8- cell subset, relative percentage, MEAN (200 mg/kg, second assay): 23.13 | CD4+ CD11b+ cell subset, relative percentage, MEAN (200 mg/kg, second assay): 0.13 | CD4+ CD11b- cell subset, relative percentage, MEAN (200 mg/kg, second assay): 15.40 | CD4- CD8+ cell subset, relative percentage, MEAN (200 mg/kg, second assay): 7.58 | CD4- CD8- cell subset, relative percentage, MEAN (200 mg/kg, second assay): 69.03 | CD4- CD11b+ cell subset, relative percentage, MEAN (200 mg/kg, second assay): 5.20 | CD4- CD11b- cell subset, relative percentage, MEAN (200 mg/kg, second assay): 79.30 | CD45+ CD4+ cell subset, relative percentage, MEAN (200 mg/kg, second assay): 20.85 | CD45+ CD4- cell subset, relative percentage, MEAN (200 mg/kg, second assay): 71.95 | CD45+ CD8+ cell subset, relative percentage, MEAN (200 mg/kg, second assay): 7.83 | CD45+ CD8- cell subset, relative percentage, MEAN (200 mg/kg, second assay): 85.60 | CD45- CD4+ cell subset, relative percentage, MEAN (200 mg/kg, second assay): 2.23 | CD45- CD4- cell subset, relative percentage, MEAN (200 mg/kg, second assay): 5.00 | CD45- CD8+ cell subset, relative percentage, MEAN (200 mg/kg, second assay): 0.05 | CD45- CD8- cell subset, relative percentage, MEAN (200 mg/kg, second assay): 6.53 | Ly5(B) cell subset, relative percentage, MEAN (200 mg/kg, second assay): 65.63 | NK+ CD3+ cell subset, relative percentage, MEAN (200 mg/kg, second assay): 2.90 | NK+ CD3- cell subset, relative percentage, MEAN (200 mg/kg, second assay): 6.83 | NK- CD3+ cell subset, relative percentage, MEAN (200 mg/kg, second assay): 32.30 | NK- CD3- cell subset, relative percentage, MEAN (200 mg/kg, second assay): 58.03 | TCR(T) cell subset, relative percentage, MEAN (200 mg/kg, second assay): 35.80 | CD4- CD8-, figure printed with the significant increase of B cells (all tested doses): 73% | Ly5, figure printed with the significant increase of B cells (all tested doses): 80% | change of B cells (in words) (all tested doses): significant increase
